Reference: ChEMBL document CHEMBL1201862, “PubChem BioAssay data set” (2004)
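Test compounds were applied to cells in 96-well plates for 48 hours at 5 doses. At the GI50, growth is halved.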 The source made the active and inactive calls. Cut-off read from the data, not from the text of the source: active = GI50 up to about 1.1 µM and inactive = higher.

Columns and labels:
Assay in all cases: DTP human tumour cell line panel, 48 h
[1] = tested on: SF-295
[2] = tested on: SF-539
[3] = tested on: MDA-N
[4] = tested on: U-251
[5] = tested on: M14
[6] = tested on: SK-MEL-2
[7] = tested on: MOLT-4
[8] = tested on: SK-MEL-28
[9] = tested on: KM12
[10] = tested on: MDA-MB-231
[11] = tested on: DU-145
[12] = tested on: OVCAR-8
[13] = tested on: NCI-H226
[14] = tested on: A549
[15] = tested on: ACHN
[16] = tested on: NCI-H23
[17] = tested on: MDA-MB-435
[18] = tested on: HCT-15
[19] = tested on: IGROV-1
[20] = tested on: SR

## Oc1ccc[n+](Cc2ccccc2)c1
[1]
  GI50: > 100 µM (inactive)
[2]
  GI50: > 100 µM (inactive)
[3]
  GI50: > 100 µM (inactive)
[4]
  GI50: > 100 µM (inactive)
[5]
  GI50: > 100 µM (inactive)
[6]
  GI50: > 100 µM (inactive)
[7]
  GI50: > 100 µM (inactive)
[8]
  GI50: > 100 µM (inactive)
[9]
  GI50: > 100 µM (inactive)
[10]
  GI50: > 100 µM (inactive)
[11]
  GI50: > 100 µM (inactive)
[12]
  GI50: > 100 µM (inactive)
[13]
  GI50: > 100 µM (inactive)
[14]
  GI50: > 100 µM (inactive)
[15]
  GI50: > 100 µM (inactive)
[16]
  GI50: > 100 µM (inactive)
[17]
  GI50: > 100 µM (inactive)
[18]
  GI50: > 100 µM

## O=C(NCCC(F)(F)C(F)(F)C(F)(F)C(F)(F)F)NC1OC(CO)C(O)C(O)C1O (stereo not given)
[1]
  GI50: > 100 µM (inactive)
[2]
  GI50: > 100 µM (inactive)
[3]
  GI50: > 100 µM (inactive)
[4]
  GI50: > 100 µM (inactive)
[5]
  GI50: > 100 µM (inactive)
[6]
  GI50: > 100 µM (inactive)
[7]
  GI50: > 100 µM (inactive)
[19]
  GI50: > 100 µM (inactive)
[8]
  GI50: > 100 µM (inactive)
[9]
  GI50: > 100 µM (inactive)
[10]
  GI50: > 100 µM (inactive)
[11]
  GI50: > 100 µM (inactive)
[20]
  GI50: > 100 µM (inactive)
[14]
  GI50: > 100 µM (inactive)
[15]
  GI50: > 100 µM (inactive)
[16]
  GI50: > 100 µM (inactive)
[17]
  GI50: > 100 µM (inactive)
[18]
  GI50: > 100 µM

## Cc1ccc2c(=O)c(-c3nnc(N)s3)c[nH]c2n1
[1]
  GI50: > 100 µM (inactive)
[3]
  GI50: > 100 µM (inactive)
[4]
  GI50: 67.1 µM (inactive)
[5]
  GI50: > 100 µM (inactive)
[6]
  GI50: > 100 µM (inactive)
[7]
  GI50: > 100 µM (inactive)
[19]
  GI50: > 100 µM (inactive)
[8]
  GI50: > 100 µM (inactive)
[9]
  GI50: > 100 µM (inactive)
[10]
  GI50: > 100 µM (inactive)
[11]
  GI50: > 100 µM (inactive)
[12]
  GI50: 42.2 µM (inactive)
[13]
  GI50: 71.4 µM (inactive)
[14]
  GI50: > 100 µM (inactive)
[15]
  GI50: > 100 µM (inactive)
[16]
  GI50: > 100 µM (inactive)
[17]
  GI50: > 100 µM (inactive)
[18]
  GI50: > 100 µM

## CN(C)CCCn1c(Cn2nc3ccccc3n2)nc2cc(C(F)(F)F)ccc21
[1]
  GI50: 44.1 µM (inactive)
[3]
  GI50: 18.8 µM (inactive)
[4]
  GI50: 26.4 µM (inactive)
[5]
  GI50: 15.3 µM (inactive)
[6]
  GI50: 19.4 µM (inactive)
[7]
  GI50: 19.1 µM (inactive)
[19]
  GI50: 29 µM (inactive)
[8]
  GI50: 17.4 µM (inactive)
[9]
  GI50: 22.8 µM (inactive)
[10]
  GI50: 28.9 µM (inactive)
[11]
  GI50: 29.7 µM (inactive)
[12]
  GI50: 30.4 µM (inactive)
[13]
  GI50: 56 µM (inactive)
[14]
  GI50: 41 µM (inactive)
[15]
  GI50: 41.5 µM (inactive)
[16]
  GI50: 34 µM (inactive)
[17]
  GI50: 16.5 µM (inactive)
[18]
  GI50: 30.1 µM

## COc1ccc2c(C=O)c3n(c(=O)c2c1OC)CCc1cc2c(cc1-3)OCO2
[1]
  GI50: 46 µM (inactive)
[2]
  GI50: > 100 µM (inactive)
[3]
  GI50: 20 µM (inactive)
[4]
  GI50: 40.6 µM (inactive)
[5]
  GI50: 18.6 µM (inactive)
[6]
  GI50: 25.9 µM (inactive)
[7]
  GI50: 4.59 µM (inactive)
[19]
  GI50: 56.6 µM (inactive)
[8]
  GI50: > 100 µM (inactive)
[9]
  GI50: 27.9 µM (inactive)
[10]
  GI50: > 100 µM (inactive)
[11]
  GI50: 78.3 µM (inactive)
[12]
  GI50: 23.4 µM (inactive)
[13]
  GI50: > 100 µM (inactive)
[14]
  GI50: 22.3 µM (inactive)
[15]
  GI50: 69.2 µM (inactive)
[16]
  GI50: 27.2 µM (inactive)
[17]
  GI50: 22.5 µM (inactive)
[18]
  GI50: 27.7 µM

## Cn1ccc(C(=O)N2CCSC2=S)c(OCc2ccccc2)c1=O
[3]
  GI50: > 100 µM (inactive)
[4]
  GI50: > 100 µM (inactive)
[6]
  GI50: > 100 µM (inactive)
[8]
  GI50: > 100 µM (inactive)
[9]
  GI50: > 100 µM (inactive)
[10]
  GI50: > 100 µM (inactive)
[11]
  GI50: > 100 µM (inactive)
[12]
  GI50: > 100 µM (inactive)
[20]
  GI50: 26.7 µM (inactive)
[13]
  GI50: > 100 µM (inactive)
[14]
  GI50: > 100 µM (inactive)
[15]
  GI50: > 100 µM (inactive)
[16]
  GI50: > 100 µM (inactive)
[17]
  GI50: > 100 µM (inactive)
[18]
  GI50: > 100 µM

## C=Cc1cc(OC)c2c(c1)c(=O)oc1c2cc(OC)c2c(O)ccc(C3OC(C)C(O)C(C)(O)C3O)c21 (stereo not given)
[1]
  GI50: 0.0313 µM (active)
[2]
  GI50: 0.0295 µM (active)
[3]
  GI50: 0.00171 µM (active)
[4]
  GI50: 0.0296 µM (active)
[5]
  GI50: 0.000382 µM (active)
[6]
  GI50: 0.0294 µM (active)
[7]
  GI50: 0.0225 µM (active)
[19]
  GI50: 0.0403 µM (active)
[10]
  GI50: 0.00345 µM (active)
[11]
  GI50: 0.000296 µM (active)
[12]
  GI50: 0.025 µM (active)
[20]
  GI50: 3.07e-06 µM (active)
[14]
  GI50: 0.0328 µM (active)
[15]
  GI50: 0.000409 µM (active)
[16]
  GI50: 0.0237 µM (active)
[17]
  GI50: 0.00163 µM (active)
[18]
  GI50: 0.0489 µM

## CC(=O)OCC1OC(O[C@@H]2C[C@H]3C(C)(C)[C@H](OC(C)=O)CC[C@]3(C)[C@H]3CC[C@]4(C)C(=CC[C@H]4[C@@H](C)C[C@@H](O)[C@H](O)C(C)(C)O)[C@@]32C)C(O)C(O)C1O (stereo not given in full)
[1]
  GI50: 18.7 µM (inactive)
[2]
  GI50: 16.4 µM (inactive)
[3]
  GI50: 18.4 µM (inactive)
[4]
  GI50: 12.7 µM (inactive)
[5]
  GI50: 21.3 µM (inactive)
[6]
  GI50: 17.4 µM (inactive)
[7]
  GI50: 16.8 µM (inactive)
[19]
  GI50: 18.6 µM (inactive)
[8]
  GI50: 15.9 µM (inactive)
[10]
  GI50: 16.9 µM (inactive)
[11]
  GI50: 17.3 µM (inactive)
[12]
  GI50: 17.3 µM (inactive)
[20]
  GI50: 16.3 µM (inactive)
[15]
  GI50: 16.7 µM (inactive)
[16]
  GI50: 18.6 µM (inactive)
[17]
  GI50: 14.8 µM (inactive)
[18]
  GI50: 17.3 µM
